Reference: PubChem BioAssay AID330 (DTP/NCI, 2004)
Inconclusive results and toxic doses are left out.

System: P388 leukemia ip, CD2F1 mice, survival T/C
Assay: NCI In Vivo Anticancer Drug Screen. Data for tumor model P388 Leukemia (intraperitoneal) in CD2F1 (CDF1) mice
Settings: endpoint: median survival time, higher = longer survival
Method in brief: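 Mice carrying the transplanted tumor received test compound or vehicle. Survival was recorded in each group, and the value is the treated-group measurement divided by that of the vehicle-treated control group.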

[1] = dose: 50.0 mg/kg/injection, schedule: Q01DX005 (ip), vehicle: Klucel (hydroxypropylcellulose) (HPC)
[2] = dose: 100.0 mg/kg/injection, schedule: Q01DX005 (ip), vehicle: Klucel (hydroxypropylcellulose) (HPC)
[3] = dose: 60.0 mg/kg/injection, schedule: Q01DX005 (ip), vehicle: saline with Tween-80
[4] = dose: 120.0 mg/kg/injection, schedule: Q01DX005 (ip), vehicle: saline with Tween-80
[5] = dose: 240.0 mg/kg/injection, schedule: Q01DX005 (ip), vehicle: saline with Tween-80
[6] = dose: 100.0 mg/kg/injection, schedule: Q01DX009 (ip), vehicle: saline with Tween-80
[7] = dose: 50.0 mg/kg/injection, schedule: Q01DX009 (ip), vehicle: saline with Tween-80
[8] = dose: 50.0 mg/kg/injection, schedule: Q01DX005 (ip), vehicle: saline with Tween-80
[9] = dose: 100.0 mg/kg/injection, schedule: Q01DX005 (ip), vehicle: saline with Tween-80
[10] = dose: 200.0 mg/kg/injection, schedule: Q01DX005 (ip), vehicle: saline with Tween-80

Structure (SMILES): C=C(OC1C=C(C(=O)O)C2OC2C1O)C(=O)O (stereo not drawn)
- T/C (dose: 2.5 mg/kg/injection, schedule: Q01DX005 (ip), vehicle: saline): 100 % of control
- T/C (dose: 5.0 mg/kg/injection, schedule: Q01DX005 (ip), vehicle: saline): 100 % of control
- T/C (dose: 10.0 mg/kg/injection, schedule: Q01DX005 (ip), vehicle: saline): 106 % of control
- T/C (dose: 20.0 mg/kg/injection, schedule: Q01DX005 (ip), vehicle: saline): 102 % of control
- T/C (dose: 40.0 mg/kg/injection, schedule: Q01DX005 (ip), vehicle: saline): 109 % of control

Structure (SMILES): COC1=CC(=O)C(OC)=C(OC)C1=O
- T/C (dose: 22.0 mg/kg/injection, schedule: Q01DX009 (ip), vehicle: saline with Tween-80): 112 % of control
- T/C (dose: 33.0 mg/kg/injection, schedule: Q01DX009 (ip), vehicle: saline with Tween-80): 123 % of control
- T/C (dose: 75.0 mg/kg/injection, schedule: Q01DX009 (ip), vehicle: saline with Tween-80): 104 % of control

Structure (SMILES): CCOC(=O)CCN(C)C1CCCCC1C(=O)OCC (stereo not drawn)
- T/C (dose: 25.0 mg/kg/injection, schedule: Q01DX009 (ip), vehicle: saline): 100 % of control
- T/C (dose: 50.0 mg/kg/injection, schedule: Q01DX009 (ip), vehicle: saline): 101 % of control
- T/C (dose: 100.0 mg/kg/injection, schedule: Q01DX009 (ip), vehicle: saline): 107 % of control

Structure (SMILES): COc1ccc(/C(N)=N/OCc2ccc(C#N)cc2)cc1
- T/C (dose: 50.0 mg/kg/injection, schedule: Q01DX009 (ip), vehicle: Klucel (hydroxypropylcellulose) (HPC)): 96 % of control
- T/C (dose: 100.0 mg/kg/injection, schedule: Q01DX009 (ip), vehicle: Klucel (hydroxypropylcellulose) (HPC)): 93 % of control
- T/C (dose: 200.0 mg/kg/injection, schedule: Q01DX009 (ip), vehicle: Klucel (hydroxypropylcellulose) (HPC)): 95 % of control

Structure (SMILES): [CH3][Sn]([CH3])([S]P(=S)(c1ccccc1)c1ccccc1)[S]P(=S)(c1ccccc1)c1ccccc1
- T/C [1]: 118 % of control
- T/C [2]: 117 % of control

Structure (SMILES): COc1ccc(C(=O)C2C(C(=O)c3ccccc3)C23C(=O)N(C)c2ccccc23)cc1 (stereo not drawn)
- T/C (dose: 25.0 mg/kg/injection, schedule: Q04DX002 (ip), vehicle: saline with Tween-80): 101 % of control
- T/C (dose: 50.0 mg/kg/injection, schedule: Q04DX002 (ip), vehicle: saline with Tween-80): 100 % of control
- T/C (dose: 100.0 mg/kg/injection, schedule: Q04DX002 (ip), vehicle: saline with Tween-80): 98 % of control

Structure (SMILES): C1CCC2[N-]CCCC2C1.C1CCC2[N-]CCCC2C1.O=[N+]([O-])O.O=[N+]([O-])O.[Cu+2] (stereo not drawn)
- T/C (dose: 7.5 mg/kg/injection, schedule: Q01DX005 (ip), vehicle: saline with Tween-80): 99 % of control
- T/C (dose: 15.0 mg/kg/injection, schedule: Q01DX005 (ip), vehicle: saline with Tween-80): 99 % of control

Structure (SMILES): Cc1cc(=Nc2ccc3c(c2)c(N)cc(C)[n+]3C)nc(N)n1C
- T/C (dose: 6.25 mg/kg/injection, schedule: Q01DX005 (ip), vehicle: Klucel (hydroxypropylcellulose) (HPC)): 107 % of control
- T/C (dose: 12.5 mg/kg/injection, schedule: Q01DX005 (ip), vehicle: Klucel (hydroxypropylcellulose) (HPC)): 107 % of control
- T/C (dose: 25.0 mg/kg/injection, schedule: Q01DX005 (ip), vehicle: Klucel (hydroxypropylcellulose) (HPC)): 104 % of control

Structure (SMILES): CCc1ccccc1NC(=O)C(=O)CC(=O)CS(=O)(=O)c1ccc(C)cc1
- T/C [3]: 103 % of control
- T/C [4]: 100 % of control
- T/C [5]: 103 % of control

Structure (SMILES): O=C1c2ccccc2C(=O)C1c1ccc2c(ccc3ccccc32)n1
- T/C [1]: 98 % of control
- T/C [2]: 88 % of control
- T/C (dose: 200.0 mg/kg/injection, schedule: Q01DX005 (ip), vehicle: Klucel (hydroxypropylcellulose) (HPC)): 96 % of control

Structure (SMILES): CN(Cc1ccccc1)C(=O)C(=O)c1c[nH]c2ccccc12
- T/C [6]: 86 % of control
- T/C (dose: 200.0 mg/kg/injection, schedule: Q01DX009 (ip), vehicle: saline with Tween-80): 90 % of control

Structure (SMILES): Cc1cccc(Cl)c1NC(=O)Nc1ccc(Cl)cc1C(=O)c1ccccc1
- T/C [3]: 99 % of control
- T/C [4]: 94 % of control
- T/C [5]: 101 % of control

Structure (SMILES): CC(=NC(C)(C)C)Nc1ccc(Cl)cc1
- T/C [7]: 103 % of control
- T/C [6]: 109 % of control

Structure (SMILES): CC(=O)OC12CC3CCC4C(CCC5(C)C(C(C)CCCC(C)C)CCC45)C3(C)CC1C(Cl)C2=O (stereo not drawn)
- T/C [8]: 99 % of control
- T/C [9]: 96 % of control
- T/C [10]: 96 % of control

Structure (SMILES): Cc1ccc2ccc(CC(O)(c3ccccc3)c3ccccc3)nc2c1
- T/C [7]: 100 % of control
- T/C [6]: 88 % of control

Structure (SMILES): O=C(Nc1ccc2c(c1)oc(=O)c1ccccc12)C(Cl)Cl
- T/C [8]: 96 % of control
- T/C [9]: 98 % of control
- T/C [10]: 89 % of control

Structure (SMILES): Cc1cc(NS(=O)(=O)c2ccc(N=c3c4ccccc4n(Cc4ccccc4)c4ccccc34)cc2)no1
- T/C [8]: 98 % of control
- T/C [9]: 97 % of control
- T/C [10]: 88 % of control
